The source of these data is ChEMBL document CHEMBL4196134, “Enantiomeric Pairs of Meroterpenoids with Diverse Heterocyclic Systems from Rhododendron nyingchiense” (J Nat Prod, 2018).

In the assay the target is T1, Tyrosine-protein phosphatase non-receptor type 1 (Homo sapiens, UniProt P18031).
T1 sequence (P18031 whole entry): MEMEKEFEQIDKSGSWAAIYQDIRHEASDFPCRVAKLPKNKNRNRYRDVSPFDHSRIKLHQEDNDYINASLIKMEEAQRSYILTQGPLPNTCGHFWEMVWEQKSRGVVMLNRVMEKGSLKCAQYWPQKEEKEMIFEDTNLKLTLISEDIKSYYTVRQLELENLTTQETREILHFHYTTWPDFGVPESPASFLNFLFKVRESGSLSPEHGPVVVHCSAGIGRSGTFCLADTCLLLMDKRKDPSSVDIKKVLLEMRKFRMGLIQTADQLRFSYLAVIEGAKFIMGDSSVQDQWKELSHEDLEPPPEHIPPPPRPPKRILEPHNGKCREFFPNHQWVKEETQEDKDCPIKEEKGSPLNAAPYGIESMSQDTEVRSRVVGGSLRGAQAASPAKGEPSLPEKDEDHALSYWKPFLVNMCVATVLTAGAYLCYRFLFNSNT
Briefly: Inhibition of recombinant human PTP1B catalytic domain ([…]) expressed in Escherichia coli BL21-codon plus (DE3) using pNPP as substrate measured continuously for 3 mins by colorimetric method.
Turning to `CC1=CC(=O)C=C2O[C@@]3(C)CC[C@H](C(C)(C)O)[C@H]3[C@H]3O[C@@]123`, the IC50 was found to be 38.1 µM. For the compound `C=C(C)[C@@H]1CC[C@]2(C)Oc3cc(O)cc(C)c3[C@H]1[C@H]2O`, the IC50 stood at 48.1 µM. As to `C=C(C)[C@@H]1CC[C@]2(C)Oc3cc(O)cc(C)c3C[C@H]12`, the IC50 came out at 61 µM. As to `C=C(C)[C@H]1CC[C@@]2(C)Oc3cc(O)cc(C)c3[C@@H]1[C@@H]2O`, the IC50 was 29 µM.

Regarding `Cc1cc(O)cc2c1O[C@H]1OC(C)(C)[C@@H]3CC[C@@](C)(O2)[C@@H]13`, the 50% inhibitory concentration (IC50) is 43.6 µM. Consider `Cc1cc(O)cc2c1[C@H]1[C@@H]3[C@@H](CC[C@]3(C)O2)C1(C)C`, for which the IC50 stood at 58.2 µM. As for `CC(C)=CCC/C(C)=C/CC/C(C)=C/Cc1c(O)cc(C)cc1O` [GRIFOLIN], the figure is 5.7 µM.

What is called IC50 is the concentration that inhibits the measured activity by half.
